From patent US20140072613A1, “Compositions and Methods for Treating Cutaneous Scarring” (priority 2012, published 2014)
Where no end group is shown, it is not given here.

What was measured:
266 human kinases [1] = experiment: biochemical; format: biochemical; settings: at 100 μM
From the text: (§1) Specifically, in these assays, a positively charged substrate is phosphorylated with a radiolabeled phosphate group from an ATP if the kinase is not inhibited by an inhibitor peptide. The positively charged substrate then is attracted to a negatively charged filter membrane, quantified with a scintillation counter, and compared to a 100% activity control.

[2] = system: hypertrophic scarring induced by mechanical loading; experiment: Mouse model of hypertrophic scarring induced by mechanical loading: scar area, gross and histological; format: in vivo; settings: 50 μg/kg intraperitoneal daily day 0 through day 14
Method: Dorsal skins were distracted laterally along both sides of the wound edge by a distraction rate of 1 mm/day from day 4 to day 7, and then 2 mm/day from day 8 to day 14. […] At day 14, skin wounds were photographed digitally, and scar areas were measured by Image J software. Tissue was harvested for RNA extraction, Florescence-Activated Cell Sorting (FACS) analysis, and histological examination.
Digital photographs were taken on the day of surgery and every two days thereafter. Gross scar appearance was assessed by tracing the wound margin and calculating the hypertrophic scar area.
Scar samples from each mouse were fixed in 10% formalin and embedded in paraffin. Sections were made and stained with hematoxylin and eosin (H&E) to assess scar tissue deposition. […] Scar areas were outlined, and areas were measured by using Image J software. Scale bar=100 μm.

[3] = system: Ca^2+/calmodulin-dependent protein kinase II (CaMKII); settings: cited from earlier work
PKA = settings: AIP 1 μM; cited from earlier work
PKC = settings: AIP 1 μM; cited from earlier work
CaMKIV = CaMKIV (Homo sapiens, UniProt Q16566); settings: AIP 1 μM; cited from earlier work
CaMK1δ (h) = CaMK1δ (h) (Homo sapiens, UniProt Q8IU85); experiment: biochemical
From the text: as §1

CaMKI (h) = CaMKI (h) (Homo sapiens, UniProt Q14012); experiment: biochemical
From the text: as §1

EphA2 (h) = EphA2 (h) (Homo sapiens, UniProt P29317); experiment: biochemical
From the text: as §1

FGFR2 (h) = FGFR2 (h) (Homo sapiens, UniProt P21802); experiment: biochemical
From the text: as §1

Fes(h) = Fes(h) (Homo sapiens, UniProt P07332); experiment: biochemical
From the text: as §1

Fgr (h) = Fgr (h) (Homo sapiens, UniProt P09769); experiment: biochemical
From the text: as §1

MSK1 (h) = MSK1 (h) (Homo sapiens, UniProt O75582); experiment: biochemical
From the text: as §1

Pim-1 (h) = Pim-1 (h) (Homo sapiens, UniProt P11309); experiment: biochemical
From the text: as §1

Yes (h) = Yes (h) (Homo sapiens, UniProt P07947); experiment: biochemical
From the text: as §1

MAPKAP-K2 (h) = MAPKAP-K2 (h) (Homo sapiens, UniProt P49137); experiment: Millipore radiometric kinase assay (IC50 Profiler Express / kinase profiling); format: biochemical
From the text: as §1

MAPKAP-K3 (h) = MAPKAP-K3 (h) (Homo sapiens, UniProt Q16644); experiment: as above; format: biochemical
From the text: as §1

TrkB (h) = TrkB (h) (Homo sapiens, UniProt Q16620); experiment: as above; format: biochemical
From the text: as §1

DMPK (h) = molecular target: T1, DMPK (h) (Homo sapiens, UniProt Q09013); experiment: Millipore radiometric kinase assay (IC50 Profiler Express); format: biochemical
T1 sequence (Q09013 1-629): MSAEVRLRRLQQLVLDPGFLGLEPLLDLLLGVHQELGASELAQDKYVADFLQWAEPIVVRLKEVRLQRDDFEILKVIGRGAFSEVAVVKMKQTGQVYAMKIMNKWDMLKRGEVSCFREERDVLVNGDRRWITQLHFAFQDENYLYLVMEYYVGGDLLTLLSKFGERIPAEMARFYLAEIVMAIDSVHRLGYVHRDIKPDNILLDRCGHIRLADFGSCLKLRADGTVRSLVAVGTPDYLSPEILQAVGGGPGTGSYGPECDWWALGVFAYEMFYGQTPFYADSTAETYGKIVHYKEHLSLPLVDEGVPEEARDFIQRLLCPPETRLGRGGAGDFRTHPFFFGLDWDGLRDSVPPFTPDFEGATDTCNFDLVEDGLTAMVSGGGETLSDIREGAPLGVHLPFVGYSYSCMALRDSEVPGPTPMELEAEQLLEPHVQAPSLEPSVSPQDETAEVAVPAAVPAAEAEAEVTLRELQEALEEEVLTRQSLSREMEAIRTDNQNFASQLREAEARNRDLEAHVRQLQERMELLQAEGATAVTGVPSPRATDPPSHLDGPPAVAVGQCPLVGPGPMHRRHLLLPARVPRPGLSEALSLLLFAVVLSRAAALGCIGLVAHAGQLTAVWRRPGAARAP
From the text: as §1

DRAK1 (h) = molecular target: T2, DRAK1 (h) (Homo sapiens, UniProt Q9UEE5); experiment: as above; format: biochemical
T2 sequence (Q9UEE5 1-414): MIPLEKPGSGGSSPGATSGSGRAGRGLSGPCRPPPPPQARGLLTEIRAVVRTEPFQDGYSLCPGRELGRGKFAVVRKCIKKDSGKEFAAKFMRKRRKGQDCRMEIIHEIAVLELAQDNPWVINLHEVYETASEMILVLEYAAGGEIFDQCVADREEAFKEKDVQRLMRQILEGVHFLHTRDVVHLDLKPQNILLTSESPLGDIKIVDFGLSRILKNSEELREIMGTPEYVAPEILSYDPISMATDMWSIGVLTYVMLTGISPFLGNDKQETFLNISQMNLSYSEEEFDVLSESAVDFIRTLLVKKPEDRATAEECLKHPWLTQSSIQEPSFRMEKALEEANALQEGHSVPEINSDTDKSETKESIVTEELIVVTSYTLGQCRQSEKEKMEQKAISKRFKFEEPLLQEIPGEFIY
From the text: as §1

EGFR (L861Q) (h) = EGFR (L861Q) (h) (Homo sapiens, UniProt P00533, L861Q); experiment: as above; format: biochemical
From the text: as §1

LOK (h) = LOK (h) (Homo sapiens, UniProt O94804); experiment: as above; format: biochemical
From the text: as §1

266 human kinases [4] = molecular target: 266 human kinases (Homo sapiens, UniProt Q9H1R3); experiment: biochemical; format: biochemical; settings: MLCK(h); 100 μM
From the text: as §1

Melanocortin 4 = molecular target: T3, Melanocortin 4 (Homo sapiens, UniProt P32245); experiment: Cerep binding assay (radiolabelled ligand competition)
T3 construct: Cerep
Method: (§2) Each binding assay was performed in 6-control wells with or without vehicle plus an 8-point dose-response of the relevant reference compound.

Neurokinin 2 = molecular target: T4, Neurokinin 2 (Homo sapiens, UniProt P21452); experiment: as above
T4 construct: Cerep
Method: as §2

Serotonin 2A = molecular target: T5, Serotonin 2A (Homo sapiens, UniProt P28223); experiment: as above
T5 construct: Cerep
Method: as §2

[5] = read-out: % Activity of off-target receptor

Sequence of MAPKAP-K2 (h) (P49137 whole entry): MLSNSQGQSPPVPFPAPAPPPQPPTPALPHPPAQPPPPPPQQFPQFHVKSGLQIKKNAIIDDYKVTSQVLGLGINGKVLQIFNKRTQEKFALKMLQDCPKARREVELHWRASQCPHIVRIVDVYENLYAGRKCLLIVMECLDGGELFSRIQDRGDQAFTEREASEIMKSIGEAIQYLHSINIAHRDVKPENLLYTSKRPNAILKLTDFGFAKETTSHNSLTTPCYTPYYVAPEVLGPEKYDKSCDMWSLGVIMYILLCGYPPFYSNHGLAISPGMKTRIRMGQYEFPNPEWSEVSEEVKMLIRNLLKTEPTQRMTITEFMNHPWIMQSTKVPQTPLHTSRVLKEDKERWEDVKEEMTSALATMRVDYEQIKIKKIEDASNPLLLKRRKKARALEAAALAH
Sequence of MAPKAP-K3 (h) (Q16644 whole entry): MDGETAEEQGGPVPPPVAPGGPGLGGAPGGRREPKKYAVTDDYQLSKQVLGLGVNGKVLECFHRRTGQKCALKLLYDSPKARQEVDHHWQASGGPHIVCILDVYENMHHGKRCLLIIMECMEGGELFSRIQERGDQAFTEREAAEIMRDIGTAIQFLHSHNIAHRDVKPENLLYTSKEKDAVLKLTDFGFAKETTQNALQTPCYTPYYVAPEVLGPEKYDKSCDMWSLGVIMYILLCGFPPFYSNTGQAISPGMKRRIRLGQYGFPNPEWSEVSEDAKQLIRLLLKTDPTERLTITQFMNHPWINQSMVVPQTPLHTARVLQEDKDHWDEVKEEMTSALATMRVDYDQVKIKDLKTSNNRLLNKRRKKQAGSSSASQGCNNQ
Sequence of CaMKI (h) (Q14012 whole entry): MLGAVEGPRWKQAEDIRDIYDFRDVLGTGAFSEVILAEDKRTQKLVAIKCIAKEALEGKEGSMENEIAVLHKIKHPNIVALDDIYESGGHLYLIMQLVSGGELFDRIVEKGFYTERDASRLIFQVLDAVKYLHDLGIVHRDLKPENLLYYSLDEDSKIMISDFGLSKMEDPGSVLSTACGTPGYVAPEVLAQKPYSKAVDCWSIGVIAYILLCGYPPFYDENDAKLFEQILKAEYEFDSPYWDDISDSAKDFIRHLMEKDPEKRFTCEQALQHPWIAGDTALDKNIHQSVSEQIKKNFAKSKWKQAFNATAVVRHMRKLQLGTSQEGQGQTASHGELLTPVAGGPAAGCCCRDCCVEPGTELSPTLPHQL
T3 sequence (P32245 whole entry): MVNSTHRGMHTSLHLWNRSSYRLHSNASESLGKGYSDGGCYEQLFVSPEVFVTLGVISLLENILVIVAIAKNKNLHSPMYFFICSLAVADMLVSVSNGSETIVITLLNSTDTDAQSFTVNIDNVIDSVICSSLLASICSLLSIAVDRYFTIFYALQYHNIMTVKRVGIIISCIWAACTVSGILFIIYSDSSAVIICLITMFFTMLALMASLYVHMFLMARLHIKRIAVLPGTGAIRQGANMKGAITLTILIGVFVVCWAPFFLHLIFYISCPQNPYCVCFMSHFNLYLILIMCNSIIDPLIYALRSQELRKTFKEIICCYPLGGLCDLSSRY
Sequence of TrkB (h) (Q16620 32-822): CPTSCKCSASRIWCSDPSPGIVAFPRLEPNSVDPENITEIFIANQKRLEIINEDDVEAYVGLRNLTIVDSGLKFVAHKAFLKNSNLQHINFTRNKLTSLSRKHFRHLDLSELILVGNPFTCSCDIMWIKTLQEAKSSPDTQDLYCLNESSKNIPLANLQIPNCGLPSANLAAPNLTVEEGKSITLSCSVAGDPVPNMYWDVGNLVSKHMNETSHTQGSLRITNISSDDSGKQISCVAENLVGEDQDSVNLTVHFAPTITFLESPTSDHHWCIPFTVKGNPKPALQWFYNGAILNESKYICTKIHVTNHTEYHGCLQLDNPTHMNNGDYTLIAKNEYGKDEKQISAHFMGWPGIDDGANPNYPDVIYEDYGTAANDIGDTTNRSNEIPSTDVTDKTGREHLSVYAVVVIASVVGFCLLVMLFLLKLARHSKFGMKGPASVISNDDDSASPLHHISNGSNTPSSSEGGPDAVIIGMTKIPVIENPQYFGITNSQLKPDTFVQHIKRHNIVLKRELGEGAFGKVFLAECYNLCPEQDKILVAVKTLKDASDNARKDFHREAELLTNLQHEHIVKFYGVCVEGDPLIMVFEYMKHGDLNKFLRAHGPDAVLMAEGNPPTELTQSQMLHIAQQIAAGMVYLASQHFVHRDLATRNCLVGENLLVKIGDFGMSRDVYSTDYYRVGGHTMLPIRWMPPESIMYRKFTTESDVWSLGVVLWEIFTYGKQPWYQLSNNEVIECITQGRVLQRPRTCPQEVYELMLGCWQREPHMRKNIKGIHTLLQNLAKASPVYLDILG
T5 sequence (P28223 whole entry): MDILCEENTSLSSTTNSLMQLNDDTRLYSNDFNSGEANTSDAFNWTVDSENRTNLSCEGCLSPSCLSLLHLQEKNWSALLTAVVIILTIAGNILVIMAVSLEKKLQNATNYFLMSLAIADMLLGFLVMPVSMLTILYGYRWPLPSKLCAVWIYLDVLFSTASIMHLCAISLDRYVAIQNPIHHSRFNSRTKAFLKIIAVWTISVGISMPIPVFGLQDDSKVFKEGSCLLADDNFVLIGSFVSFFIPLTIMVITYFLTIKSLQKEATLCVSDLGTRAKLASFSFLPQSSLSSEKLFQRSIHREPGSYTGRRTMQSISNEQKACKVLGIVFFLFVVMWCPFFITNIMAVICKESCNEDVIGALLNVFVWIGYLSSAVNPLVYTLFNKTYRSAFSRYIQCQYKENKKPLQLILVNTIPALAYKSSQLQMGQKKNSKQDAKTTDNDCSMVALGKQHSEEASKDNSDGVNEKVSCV
T4 sequence (P21452 whole entry): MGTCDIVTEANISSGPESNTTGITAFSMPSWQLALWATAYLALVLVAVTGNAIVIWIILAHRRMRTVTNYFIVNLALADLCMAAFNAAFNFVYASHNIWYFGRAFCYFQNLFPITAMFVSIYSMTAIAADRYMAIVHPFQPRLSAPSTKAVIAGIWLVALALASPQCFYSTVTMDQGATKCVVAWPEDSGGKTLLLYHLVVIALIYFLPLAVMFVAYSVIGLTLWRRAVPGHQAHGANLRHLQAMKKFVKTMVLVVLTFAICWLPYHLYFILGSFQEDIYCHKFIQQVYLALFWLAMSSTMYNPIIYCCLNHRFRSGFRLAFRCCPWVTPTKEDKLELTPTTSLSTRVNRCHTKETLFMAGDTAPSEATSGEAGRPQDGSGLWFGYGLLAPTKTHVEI
Sequence of CaMK1δ (h) (Q8IU85 whole entry): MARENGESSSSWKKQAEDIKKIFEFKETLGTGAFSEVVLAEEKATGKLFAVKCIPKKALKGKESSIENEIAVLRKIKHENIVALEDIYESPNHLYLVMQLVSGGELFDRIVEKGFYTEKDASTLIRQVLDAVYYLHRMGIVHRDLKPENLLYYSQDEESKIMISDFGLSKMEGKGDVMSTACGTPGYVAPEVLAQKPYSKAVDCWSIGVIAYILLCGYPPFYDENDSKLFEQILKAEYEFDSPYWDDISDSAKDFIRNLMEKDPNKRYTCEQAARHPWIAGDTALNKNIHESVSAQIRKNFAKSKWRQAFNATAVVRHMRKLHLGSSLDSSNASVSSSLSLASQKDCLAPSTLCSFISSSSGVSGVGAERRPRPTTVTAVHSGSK
Sequence of Yes (h) (P07947 whole entry): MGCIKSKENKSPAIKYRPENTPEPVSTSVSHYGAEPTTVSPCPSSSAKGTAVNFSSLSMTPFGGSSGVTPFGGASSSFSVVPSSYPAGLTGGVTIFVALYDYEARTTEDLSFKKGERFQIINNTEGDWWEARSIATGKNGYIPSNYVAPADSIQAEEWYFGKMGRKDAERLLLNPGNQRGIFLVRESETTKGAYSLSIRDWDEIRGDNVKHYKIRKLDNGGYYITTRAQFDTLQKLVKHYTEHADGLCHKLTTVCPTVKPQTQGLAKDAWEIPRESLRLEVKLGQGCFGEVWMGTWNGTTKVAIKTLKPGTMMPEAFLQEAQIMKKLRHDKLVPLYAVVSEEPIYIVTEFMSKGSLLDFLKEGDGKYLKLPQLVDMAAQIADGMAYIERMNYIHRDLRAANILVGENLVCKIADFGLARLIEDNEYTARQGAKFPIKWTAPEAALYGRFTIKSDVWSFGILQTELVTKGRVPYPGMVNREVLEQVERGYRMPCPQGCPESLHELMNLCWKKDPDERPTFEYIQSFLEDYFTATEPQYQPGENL
Sequence of Pim-1 (h) (P11309 whole entry): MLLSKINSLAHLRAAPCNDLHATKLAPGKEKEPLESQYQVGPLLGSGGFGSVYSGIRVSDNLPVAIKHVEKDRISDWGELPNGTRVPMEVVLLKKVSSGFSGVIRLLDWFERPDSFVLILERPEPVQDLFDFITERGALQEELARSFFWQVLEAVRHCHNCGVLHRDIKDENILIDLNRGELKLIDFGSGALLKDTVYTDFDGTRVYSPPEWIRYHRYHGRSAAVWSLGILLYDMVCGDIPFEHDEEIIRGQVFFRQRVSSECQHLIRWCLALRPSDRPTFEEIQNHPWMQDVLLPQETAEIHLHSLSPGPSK
Sequence of CaMKIV (Q16566 whole entry, species assumed): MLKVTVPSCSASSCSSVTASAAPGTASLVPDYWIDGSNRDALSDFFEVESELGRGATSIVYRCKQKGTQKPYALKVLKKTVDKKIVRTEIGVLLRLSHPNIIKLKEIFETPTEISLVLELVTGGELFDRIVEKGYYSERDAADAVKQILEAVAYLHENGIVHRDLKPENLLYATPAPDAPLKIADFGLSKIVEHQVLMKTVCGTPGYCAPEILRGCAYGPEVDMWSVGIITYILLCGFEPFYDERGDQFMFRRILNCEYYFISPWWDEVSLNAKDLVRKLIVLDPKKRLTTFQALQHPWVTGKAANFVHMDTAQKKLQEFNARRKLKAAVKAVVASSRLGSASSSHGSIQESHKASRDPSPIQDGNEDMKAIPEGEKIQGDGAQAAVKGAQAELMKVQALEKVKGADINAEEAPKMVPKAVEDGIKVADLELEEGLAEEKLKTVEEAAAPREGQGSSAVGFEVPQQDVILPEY

FAKLAARLYRKALARQLGVAA [MMI-0300]
off-target kinase inhibition (266 human kinases [1]): very limited off-target kinase inhibition | gross scar appearance vs PBS-treated control mouse [2]: less inflammation and less scar formation

KAFAKLAARLYRKALARQLGVAA [MMI-0400]
off-target kinase inhibition (266 human kinases [1]): very limited off-target kinase inhibition

autocamtide-2 related inhibitory peptide [AIP]
CaMKII activity ([3]; AIP 1 μM): inhibited completely | IC50 [3]: 100 nM | PKA activity (PKA): not affected | PKC activity (PKC): not affected | CaMKIV activity (CaMKIV): not affected

YARAAARQARAKALARQLGVAA [MMI-0100]
IC50 (CaMK1δ (h)): 45.8 µM | IC50 (CaMKI (h)): 11.7 µM | inhibition at 100 µM (CaMKI (h); read-out: inhibition of kinase activity of CaMKI): > 65% | IC50 (EphA2 (h)): 181 µM | IC50 (FGFR2 (h)): 172 µM | IC50 (Fes(h)): 174 µM | IC50 (Fgr (h)): 141 µM | IC50 (MSK1 (h)): 102 µM | IC50 (Pim-1 (h)): 71.7 µM | IC50 (Yes (h)): 114 µM | IC50 (MAPKAP-K2 (h)): 12.1 µM | inhibition at 100 µM (MAPKAP-K2 (h); at 100 μM, in vitro, read-out: inhibition of kinase activity of MK2): > 65% | IC50 (MAPKAP-K3 (h)): 15.8 µM | inhibition at 100 µM (MAPKAP-K3 (h); at 100 μM, in vitro, read-out: inhibition of kinase activity of MK3): > 65% | IC50 (TrkB (h)): 4.6 µM | inhibition at 100 µM (TrkB (h); at 100 μM, in vitro): > 65% | IC50 (DMPK (h)): 34.1 µM | IC50 (DRAK1 (h)): 78.3 µM | IC50 (EGFR (L861Q) (h)): 128 µM | IC50 (LOK (h)): 47.6 µM | activity at 100 µM (266 human kinases [4]): 85% | inhibition of off-target protein (Melanocortin 4; concentration not given): less than 30% | activity at 100 µM (Melanocortin 4; [5]): 81% | inhibition of off-target protein (Neurokinin 2; concentration not given): less than 30% | activity at 100 µM (Neurokinin 2; [5]): 85% | inhibition of off-target protein (Serotonin 2A; concentration not given): less than 30% | activity at 100 µM (Serotonin 2A; [5]): 86%
